Bounds are passed on as bounds.

For this assay, the system named is HBV. The assay is described as follows: Viral load production from HepAD38 cells, qPCR of the HBV core sequence in supernatant. The settings on record: Hepatitis B virus, HePAD38, 120 h, HepAD38 cells, 5 days, HBV DNA in supernatant by qPCR; Table 1 ranges; read-out: Activity (viral load lowering EC50). It is filed as cell-based. Put shortly: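 EC50 and CC50 come from four-parameter logistic fits of supernatant HBV core DNA (TaqMan qPCR, DNA standards, compared with DMSO wells) and of CellTiter-Glo luminescence.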
(Real-time PCR tracks product formation cycle by cycle.)
For orientation: EC50 means the midpoint of the concentration-response curve. With `Cn1nc(C2CC3CC(CNC(=O)C(C)(C)CO)CC3C2)c(C(=O)Nc2ccc(F)c(Cl)c2)c1N` (stereo not drawn) [Example 67, 5-Amino-N-(3-chloro-4-fluorophenyl)-3-(5-((3-hydroxy-2,2-dimethylpropanamido)methyl)octahydropentalen-2-yl)-1-methyl-1H-pyrazole-4-carboxamide], the EC50 is less than 10 nM. Take `Cn1nc(C2CC3CC(CNC(=O)C4(C)CCC4)CC3C2)c(C(=O)Nc2ccc(F)c(Cl)c2)c1N` (stereo not drawn) [Example 68, 5-Amino-N-(3-chloro-4-fluorophenyl)-1-methyl-3-(5-((1-methylcyclobutane-1-carboxamido)methyl)octahydropentalen-2-yl)-1H-pyrazole-4-carboxamide]: the EC50 was less than 10 nM. In the case of `Cn1nc(C2CC3CC(CNC(=O)C45CC(C4)C5)CC3C2)c(C(=O)Nc2ccc(F)c(Cl)c2)c1N` (stereo not drawn) [Example 69, 5-Amino-3-(5-((bicyclo[1.1.1]pentane-1-carboxamido)methyl)octahydropentalen-2-yl)-N-(3-chloro-4-fluorophenyl)-1-methyl-1H-pyrazole-4-carboxamide] it was less than 10 nM; in that of `Cn1nc(C2CC3CC(CNC(=O)C(C)(C)C4CCN(C(=O)OC(C)(C)C)CC4)CC3C2)c(C(=O)Nc2ccc(F)c(Cl)c2)c1N` (stereo not drawn) [Example 70, tert-Butyl 4-(1-(((5-(5-amino-4-((3-chloro-4-fluorophenyl)carbamoyl)-1-methyl-1H-pyrazol-3-yl)octahydropentalen-2-yl)methyl)amino)-2-methyl-1-oxopropan-2-yl)piperidine-1-carboxylate], 10 to 50 nM. For the compound `Cn1nc(C2CC3CC(CNC(=O)CCCN4CCCCC4)CC3C2)c(C(=O)Nc2ccc(F)c(Cl)c2)c1N` (stereo not drawn) [Example 71, 5-Amino-N-(3-chloro-4-fluorophenyl)-1-methyl-3-(5-((4-(piperidin-1-yl)butanamido)methyl)octahydropentalen-2-yl)-1H-pyrazole-4-carboxamide], the EC50 lay in the range of 10 to 50 nM. Take `Cn1nc(C2CC3CC(CNC(=O)CCCN4CCOCC4)CC3C2)c(C(=O)Nc2ccc(F)c(Cl)c2)c1N` (stereo not drawn) [Example 72, 5-Amino-N-(3-chloro-4-fluorophenyl)-1-methyl-3-(5-((4-morpholinobutanamido)methyl)octahydropentalen-2-yl)-1H-pyrazole-4-carboxamide]: the EC50 is less than 10 nM. For the compound `Cn1nc(C2CC3CC(CNC(=O)CCCCCNC(=O)OC(C)(C)C)CC3C2)c(C(=O)Nc2ccc(F)c(Cl)c2)c1N` (stereo not drawn) [Example 73, tert-Butyl (6-(((5-(5-amino-4-((3-chloro-4-fluorophenyl)carbamoyl)-1-methyl-1H-pyrazol-3-yl)octahydropentalen-2-yl)methyl)amino)-6-oxohexyl)carbamate], the EC50 was in the range of 10 to 50 nM.

For the compound `Cn1nc(C2CC3CC(CNC(=O)COCCOCCNC(=O)OC(C)(C)C)CC3C2)c(C(=O)Nc2ccc(F)c(Cl)c2)c1N` (stereo not drawn) [Example 74, tert-Butyl (2-(2-(2-(((5-(5-amino-4-((3-chloro-4-fluorophenyl)carbamoyl)-1-methyl-1H-pyrazol-3-yl)octahydropentalen-2-yl)methyl)amino)-2-oxoethoxy)ethoxy)ethyl)carbamate], the EC50 is less than 10 nM. In the case of `Cn1nc(C2CC3CC(CNC(=O)C4CCNCC4)CC3C2)c(C(=O)Nc2ccc(F)c(Cl)c2)c1N` (stereo not drawn) [Example 75, N-((5-(5-Amino-4-((3-chloro-4-fluorophenyl)carbamoyl)-1-methyl-1H-pyrazol-3-yl)octahydropentalen-2-yl)methyl)piperidine-4-carboxamide] it was 10 to 50 nM; in that of `Cn1nc(C2CC3CC(CNC(=O)C4CCCCC4)CC3C2)c(C(=O)Nc2ccc(F)c(Cl)c2)c1N` (stereo not drawn) [Example 76, 5-Amino-N-(3-chloro-4-fluorophenyl)-3-(5-(cyclohexanecarboxamidomethyl)octahydropentalen-2-yl)-1-methyl-1H-pyrazole-4-carboxamide], 10 to 50 nM. With `COC(=O)C12CCC(C(=O)NCC3CC4CC(c5nn(C)c(N)c5C(=O)Nc5ccc(F)c(Cl)c5)CC4C3)(CC1)CC2` (stereo not drawn) [Example 77, Methyl 4-(((5-(5-amino-4-((3-chloro-4-fluorophenyl)carbamoyl)-1-methyl-1H-pyrazol-3-yl)octahydropentalen-2-yl)methyl)carbamoyl)bicyclo[2.2.2]octane-1-carboxylate], the EC50 fell in the range of 50 to 500 nM. On to `Cn1nc(C2CC3CC(CNC(=O)C45CCN(CC4)CC5)CC3C2)c(C(=O)Nc2ccc(F)c(Cl)c2)c1N` (stereo not drawn) [Example 78, N-((5-(5-Amino-4-((3-chloro-4-fluorophenyl)carbamoyl)-1-methyl-1H-pyrazol-3-yl)octahydropentalen-2-yl)methyl)quinuclidine-4-carboxamide], for which the EC50 is 50 to 500 nM.

Consider `Cn1nc(C2CC3CC(CNC(=O)C(C)(C)C4CCNCC4)CC3C2)c(C(=O)Nc2ccc(F)c(Cl)c2)c1N` (stereo not drawn) [Example 79, 5-Amino-N-(3-chloro-4-fluorophenyl)-1-methyl-3-(5-((2-methyl-2-(piperidin-4-yl)propanamido)methyl)octahydropentalen-2-yl)-1H-pyrazole-4-carboxamide], for which the EC50 lay in the range of 50 to 500 nM. In the case of `Cn1nc(C2CC3CC(CNC(=O)C4CCNC(=O)C4)CC3C2)c(C(=O)Nc2ccc(F)c(Cl)c2)c1N` (stereo not drawn) [Example 80, N-((5-(5-Amino-4-((3-chloro-4-fluorophenyl)carbamoyl)-1-methyl-1H-pyrazol-3-yl)octahydropentalen-2-yl)methyl)-2-oxopiperidine-4-carboxamide], the EC50 fell in the range of 50 to 500 nM.

For the compound `Cn1nc(C2CC3CC(CNC(=O)CCCCCN)CC3C2)c(C(=O)Nc2ccc(F)c(Cl)c2)c1N` (stereo not drawn) [Example 81, 5-Amino-3-(5-((6-aminohexanamido)methyl)octahydropentalen-2-yl)-N-(3-chloro-4-fluorophenyl)-1-methyl-1H-pyrazole-4-carboxamide], the EC50 fell in the range of 50 to 500 nM. `Cn1nc(C2CC3CC(CNC(=O)COCCOCCN)CC3C2)c(C(=O)Nc2ccc(F)c(Cl)c2)c1N` (stereo not drawn) [Example 82, 5-Amino-3-(5-((2-(2-(2-aminoethoxy)ethoxy)acetamido)methyl)octahydropentalen-2-yl)-N-(3-chloro-4-fluorophenyl)-1-methyl-1H-pyrazole-4-carboxamide]: the EC50 is 50 to 500 nM. `CNS(=O)(=O)NCC1CC2CC(c3nn(C)c(N)c3C(=O)Nc3ccc(F)c(Cl)c3)CC2C1` (stereo not drawn) [Example 83, 5-Amino-N-(3-chloro-4-fluorophenyl)-1-methyl-3-(5-(((N-methylsulfamoyl)amino)methyl)octahydropentalen-2-yl)-1H-pyrazole-4-carboxamide]: the EC50 was less than 10 nM. In the case of `Cn1nc(C2CC3CC(CNS(=O)(=O)c4ccc(OC(F)(F)F)cc4)CC3C2)c(C(=O)Nc2ccc(F)c(Cl)c2)c1N` (stereo not drawn) [Example 84, 5-Amino-N-(3-chloro-4-fluorophenyl)-1-methyl-3-(5-(((4-(trifluoromethoxy)phenyl)sulfonamido)methyl)octahydropentalen-2-yl)-1H-pyrazole-4-carboxamide] it was 50 to 500 nM; in that of `Cn1nc(C2CC3CC(CNS(=O)(=O)c4ccc(F)cc4F)CC3C2)c(C(=O)Nc2ccc(F)c(Cl)c2)c1N` (stereo not drawn) [Example 85, 5-Amino-N-(3-chloro-4-fluorophenyl)-3-(5-(((2,4-difluorophenyl)sulfonamido)methyl)octahydropentalen-2-yl)-1-methyl-1H-pyrazole-4-carboxamide], less than 10 nM; in that of `Cn1nc(C2CC3CC(CNS(=O)(=O)c4ccc(Cl)nc4)CC3C2)c(C(=O)Nc2ccc(F)c(Cl)c2)c1N` (stereo not drawn) [Example 86, 5-Amino-N-(3-chloro-4-fluorophenyl)-3-(5-(((6-chloropyridine)-3-sulfonamido)methyl)octahydropentalen-2-yl)-1-methyl-1H-pyrazole-4-carboxamide], less than 10 nM.

For `CCS(=O)(=O)NCC1CC2CC(c3nn(C)c(N)c3C(=O)Nc3ccc(F)c(Cl)c3)CC2C1` (stereo not drawn) [Example 87, 5-Amino-N-(3-chloro-4-fluorophenyl)-3-(5-(ethylsulfonamidomethyl)octahydropentalen-2-yl)-1-methyl-1H-pyrazole-4-carboxamide], the EC50 was less than 10 nM. In the case of `Cn1nc(C2CC3CC(CNS(C)(=O)=O)CC3C2)c(C(=O)Nc2ccc(F)c(Cl)c2)c1N` (stereo not drawn) [Example 88, 5-Amino-N-(3-chloro-4-fluorophenyl)-1-methyl-3-(5-(methylsulfonamidomethyl)octahydropentalen-2-yl)-1H-pyrazole-4-carboxamide], the EC50 was less than 10 nM. In the case of `CCCS(=O)(=O)NCC1CC2CC(c3nn(C)c(N)c3C(=O)Nc3ccc(F)c(Cl)c3)CC2C1` (stereo not drawn) [Example 89, 5-Amino-N-(3-chloro-4-fluorophenyl)-1-methyl-3-(5-(propylsulfonamidomethyl)octahydropentalen-2-yl)-1H-pyrazole-4-carboxamide], the EC50 was less than 10 nM.

On to `CC(C)S(=O)(=O)NCC1CC2CC(c3nn(C)c(N)c3C(=O)Nc3ccc(F)c(Cl)c3)CC2C1` (stereo not drawn) [Example 90, 5-Amino-N-(3-chloro-4-fluorophenyl)-1-methyl-3-(5-(((1-methylethyl)sulfonamido)methyl)octahydropentalen-2-yl)-1H-pyrazole-4-carboxamide], for which the EC50 was less than 10 nM. On to `Cn1nc(C2CC3CC(CNS(=O)(=O)C4CCC4)CC3C2)c(C(=O)Nc2ccc(F)c(Cl)c2)c1N` (stereo not drawn) [Example 91, 5-Amino-N-(3-chloro-4-fluorophenyl)-3-(5-(cyclobutanesulfonamidomethyl)octahydropentalen-2-yl)-1-methyl-1H-pyrazole-4-carboxamide], for which the EC50 was in the range of 10 to 50 nM. For `Cn1nc(C2CC3CC(CNS(=O)(=O)C4CCCC4)CC3C2)c(C(=O)Nc2ccc(F)c(Cl)c2)c1N` (stereo not drawn) [Example 92, 5-Amino-N-(3-chloro-4-fluorophenyl)-3-(5-(cyclopentanesulfonamidomethyl)octahydropentalen-2-yl)-1-methyl-1H-pyrazole-4-carboxamide], the EC50 lay within 10 to 50 nM. As to `Cn1nc(C2CC3CC(CNS(=O)(=O)C(F)(F)F)CC3C2)c(C(=O)Nc2ccc(F)c(Cl)c2)c1N` (stereo not drawn) [Example 93, 5-Amino-N-(3-chloro-4-fluorophenyl)-1-methyl-3-(5-(((trifluoromethyl)sulfonamido)methyl)octahydropentalen-2-yl)-1H-pyrazole-4-carboxamide], the EC50 lay within 10 to 50 nM.

The values are drawn from US20230295096A1, “PYRAZOLE CARBOXAMIDE COMPOUNDS FOR TREATMENT OF HBV” (ASSEMBLY BIOSCIENCES, INC., priority 2020, published 2023).
